Data on one compound can be found in paper PMC3663987 (Parasitology Research, 2013).

As a reminder, the EC50 is the midpoint of the concentration-response curve.

The target of the experiment is P-glycoprotein (Pgp, ABCB1) (Homo sapiens, UniProt P08183). Nature of the experiment: Pgp-Glo ATPase stimulation assay, recombinant human Pgp membranes. The class given is biochemical.
P-glycoprotein (Pgp, ABCB1), sequence (P08183 whole entry): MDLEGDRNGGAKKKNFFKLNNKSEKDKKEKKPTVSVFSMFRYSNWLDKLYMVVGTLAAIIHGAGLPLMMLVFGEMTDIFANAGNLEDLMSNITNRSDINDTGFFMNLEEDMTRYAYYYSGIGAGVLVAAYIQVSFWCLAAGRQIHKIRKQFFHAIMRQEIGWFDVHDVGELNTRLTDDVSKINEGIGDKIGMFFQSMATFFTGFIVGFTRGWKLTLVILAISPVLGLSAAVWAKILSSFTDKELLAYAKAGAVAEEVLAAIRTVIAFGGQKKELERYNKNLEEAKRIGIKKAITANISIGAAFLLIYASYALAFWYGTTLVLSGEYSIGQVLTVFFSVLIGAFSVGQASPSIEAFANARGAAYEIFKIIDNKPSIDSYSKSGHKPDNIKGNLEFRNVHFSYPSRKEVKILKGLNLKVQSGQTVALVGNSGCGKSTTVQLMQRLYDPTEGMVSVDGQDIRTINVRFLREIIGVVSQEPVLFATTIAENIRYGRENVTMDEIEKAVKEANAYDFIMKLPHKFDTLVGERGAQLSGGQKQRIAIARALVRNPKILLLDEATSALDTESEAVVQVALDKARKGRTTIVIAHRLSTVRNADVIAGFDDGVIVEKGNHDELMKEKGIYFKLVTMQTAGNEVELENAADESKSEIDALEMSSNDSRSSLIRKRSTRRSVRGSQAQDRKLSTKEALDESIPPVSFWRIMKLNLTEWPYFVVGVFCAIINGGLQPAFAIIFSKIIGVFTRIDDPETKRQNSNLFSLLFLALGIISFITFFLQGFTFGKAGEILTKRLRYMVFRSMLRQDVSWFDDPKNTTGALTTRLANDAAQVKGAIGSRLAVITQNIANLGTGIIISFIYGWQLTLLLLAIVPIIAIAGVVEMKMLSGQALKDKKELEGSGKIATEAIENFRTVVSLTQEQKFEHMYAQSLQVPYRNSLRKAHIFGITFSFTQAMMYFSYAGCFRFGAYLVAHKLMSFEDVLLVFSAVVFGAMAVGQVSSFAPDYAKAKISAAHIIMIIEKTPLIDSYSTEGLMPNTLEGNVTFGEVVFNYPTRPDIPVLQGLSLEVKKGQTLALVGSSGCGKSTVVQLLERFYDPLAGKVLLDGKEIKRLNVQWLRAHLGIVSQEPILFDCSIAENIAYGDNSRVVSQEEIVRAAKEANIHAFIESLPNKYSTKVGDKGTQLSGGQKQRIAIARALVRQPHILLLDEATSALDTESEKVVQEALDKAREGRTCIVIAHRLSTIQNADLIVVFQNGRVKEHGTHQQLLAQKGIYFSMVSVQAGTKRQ

For the compound `O=C(Cn1ccnc1[N+](=O)[O-])NCc1ccccc1` [Bz, N-Benzyl-2-nitro-1H-imidazole-1-acetamide], the EC50 is 277 µM.
